From patent US10934297B2, “5-heteroaryl substituted indazole-3-carboxamides and preparation and use thereof” (Samumed, LLC, priority 2018, dated 2021)

How the values were obtained:
[1] = test system: Wnt activity (Sp5-Luc reporter in SW480 cells); assay: Screening assay for Wnt activity: Sp5-Luc reporter gene assay in SW480 colon carcinoma cells; assay type: cell-based, human; conditions: Homo sapiens, 36 to 48 hours
Method in brief: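 SW480 colon carcinoma cells stably carrying a lentiviral luciferase reporter driven by an Sp5 promoter with eight TCF/LEF sites, plated at 4,000 cells/well in DMEM with 1% FBS. Compound exposure for 36–48 h at 37 °C, then luminescence read. Signals normalized to DMSO; EC50 from four-parameter nonlinear fit.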

DYRK1A kinase = DYRK1A kinase (Homo sapiens (Human), UniProt Q13627); assay: DYRK1A kinase assay (Ser/Thr 18 peptide Z-lyte FRET); assay type: biochemical; conditions: read-out: EC50 (method: IC50)
Method in brief: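 This Z-lyte FRET assay reads the coumarin/fluorescein emission ratio. Compounds were incubated with the reaction mixture for 1 h at room temperature, followed by development reagent for a further 1 h at room temperature, in duplicate.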

GSK3β kinase = GSK3β kinase (Homo sapiens (Human), UniProt P49841); assay: GSK3β kinase assay (Ser/Thr 09 peptide Z-lyte FRET); assay type: biochemical; conditions: read-out: EC50 (method: IC50)
Method in brief: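 Non-radioactive Z-lyte FRET read-out, kinase activity expressed as coumarin/fluorescein emission ratio. Compounds incubated with the reaction mixture one hour at room temperature in duplicate, then development buffer added for another hour. IC50 from non-linear regression of dose-response curves.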

[2] = test system: SW480 colon carcinoma cells; assay: Cell viability assay (CellTiter-Glo) in SW480 colon carcinoma cells; assay type: cell-based, human; conditions: Homo sapiens, 96 h, four days
Method in brief: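 SW480 cells stably carrying an Sp5-promoter luciferase reporter were plated at 2,000 cells/well in DMEM with 1% FBS and treated with compound for four days at 37 °C. Viability was read as ATP luminescence with CellTiter-Glo after about 12 min; DMSO-treated wells served as controls.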

[3] = test system: primary human fibroblasts derived from IPF patients (LL29 cells); assay: Inhibition of the fibrotic process: αSMA staining in TGF-β1 treated LL29 fibroblasts; assay type: cell-based; conditions: Homo sapiens, Fibroblast, 96 h; LL29 cells, TGF-β1 20 ng/mL, 4 days, % αSMA positive cells
Method in brief: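 LL29 fibroblasts from IPF patients, in F12 medium with 1% FBS, treated with TGF-β1 plus compound; TGF-β1 with DMSO as positive control, DMSO alone as negative control. After 4 days' incubation, SYTOX green nucleic acid stain added at 1 μM final, 30 min at room temperature.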

IL-6 = IL-6 inhibition in LPS-stimulated human peripheral blood mononuclear cells (HTRF); assay type: cell-based; conditions: Homo sapiens, PBMC; for EC50: huPBMCs, LPS 50 ng/mL, 22 hours, IL-6 HTRF; for inhibition at 10 µM: read-out: percent inhibition at 10 μM
Method: Fresh Normal PB MNC (Catalog #PB001, AllCells, Alameda, Calif.) were shipped overnight at 4° C. and resuspended in Roswell Park Memorial Institute (RPMI) 1640 Medium, with GlutaMAX Supplement (Catalog #61870127, ThermoFisher Scientific, Waltham, Mass.) supplemented with 1% Penicillin-Streptomycin (Catalog #15140163. ThermoFisher Scientific, Waltham, Mass.) and 1% fetal bovine serum (FBS) (Catalog #16140089, ThermoFisher Scientific, Waltham, Mass.) assay media. Fresh normal human peripheral blood mononuclear cells (huPBMCs) were resuspended in 1% FBS-RPMI assay media with 1% Penicillin-Streptomycin 1% to a cell concentration of 1×10e6 cells/mL. […] 50 ng/mL of Lipopolysaccharides from Escherichia coli 0111:B4 (Catalog #L5293-2ML, Sigma-Aldrich, St. Louis, Mo.) was added after 2 hours and cells were incubated for another 22 hours at 37° C.-5% CO2. After 22 hour incubation, a mixture of anti-IL6 XL665 and anti-IL-6 Cryptate diluted in reconstitution buffer (Catalog #62IL6PEC, Cisbio Inc., Bedford, Mass.) was added to each well. Following incubation for 3 hours at room temperature, Homogeneous Time-Resolved Fluorescence (HTRF) was measured using the Envision (Perkin Elmer, Shelton, Conn.) at 665 nm and […]. The ratio of fluorescence at 665 nm to 620 nm was used as a readout for IL-6 quantification. All samples were processed in duplicate. Readings were normalized to DMSO treated cells and normalized activities were utilized for EC50 calculations.

Sequence of GSK3β kinase (P49841 whole entry): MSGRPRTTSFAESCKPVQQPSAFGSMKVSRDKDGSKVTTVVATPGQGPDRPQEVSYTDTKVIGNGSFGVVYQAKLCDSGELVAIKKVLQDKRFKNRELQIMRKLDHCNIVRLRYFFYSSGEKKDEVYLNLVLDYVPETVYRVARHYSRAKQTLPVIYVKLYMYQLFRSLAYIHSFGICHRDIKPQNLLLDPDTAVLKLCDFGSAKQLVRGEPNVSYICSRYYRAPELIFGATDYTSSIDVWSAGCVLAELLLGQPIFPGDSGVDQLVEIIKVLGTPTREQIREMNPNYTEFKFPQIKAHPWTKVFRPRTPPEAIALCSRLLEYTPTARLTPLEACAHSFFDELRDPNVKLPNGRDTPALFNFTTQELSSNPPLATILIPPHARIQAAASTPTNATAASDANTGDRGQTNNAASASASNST

EC50 [1] [nM] | IC50 (DYRK1A kinase) [nM] | IC50 (GSK3β kinase) [nM] | EC50 [2] [nM] | EC50 (IL-6) [nM] | Compound | EC50 [3] [nM] | inhibition at 10 µM (IL-6) [%]
267 | 24 | 36 | > 10000 | 3150 | CC(C)CN1CC[C@H](NC(=O)c2n[nH]c3ccc(-c4cnn(C)c4)cc23)[C@@H](F)C1 [Compound 33, N-((3 S,4S)-3-Fluoro-1-isobutylpiperidin-4-yl)-5-(1-methyl-1H-pyrazol-4-yl)-1H-indazole-3-carboxamide] | 43 | –
474 | 7 | 23 | 691 | 348 | CC(C)(F)CN1CCC(NC(=O)c2n[nH]c3ccc(-c4cn[nH]c4)cc23)CC1 [Compound 36, N-(1-(2-Fluoro-2-methylpropyl)piperidin-4-yl)-5-(1H-pyrazol-4-yl)-1H-indazole-3-carboxamide] | 147 | –
747 | 5 | 14 | 849 | 546 | Cn1cc(-c2ccc3[nH]nc(C(=O)NC4CCN(CC(C)(C)F)CC4)c3c2)cn1 [Compound 37, N-(1-(2-Fluoro-2-methylpropyl)piperidin-4-yl)-5-(1-methyl-1H-pyrazol-4-yl)-1H-indazole-3-carboxamide] | 118 | –
> 10000 | > 10000 | > 10000 | > 10000 | > 10000 | Cn1cc(-c2cc(Cl)c3[nH]nc(C(=O)NC4CCN(CC(C)(C)F)CC4)c3c2)cn1 [Compound 38, 7-Chloro-N-(1-(2-fluoro-2-methylpropyl)piperidin-4-yl)-5-(1-methyl-1H-pyrazol-4-yl)-1H-indazole-3-carboxamide] | > 10000 | 8.8
3880 | 22 | 33 | 1310 | 1260 | CCn1cc(-c2ccc3[nH]nc(C(=O)NC4CCN(CC(C)(C)F)CC4)c3c2)cn1 [Compound 39, 5-(1-Ethyl-1H-pyrazol-4-yl)-N-(1-(2-fluoro-2-methylpropyl)piperidin-4-yl)-1H-indazole-3-carboxamide] | 272 | –
1720 | 45 | 687 | 1080 | 1930 | CC(C)(F)CN1CCC(NC(=O)c2n[nH]c3ccc(-c4cnn(C5CC5)c4)cc23)CC1 [Compound 40, 5-(1-Cyclopropyl-1H-pyrazol-4-yl)-N-(1-(2-fluoro-2-methylpropyl)piperidin-4-yl)-1H-indazole-3-carboxamide] | 68 | –
828 | 250 | 76 | 3000 | 2860 | Cn1ncc(-c2ccc3[nH]nc(C(=O)NC4CCN(CC(C)(C)F)CC4)c3c2)c1C(F)F [Compound 41, 5-(5-(Difluoromethyl)-1-methyl-1H-pyrazol-4-yl)-N-(1-(2-fluoro-2-methylpropyl)piperidin-4-yl)-1H-indazole-3-carboxamide] | 342 | –
> 10000 | 67 | 1060 | > 10000 | 9150 | Cc1noc(C)c1-c1ccc2[nH]nc(C(=O)NC3CCN(CC(C)(C)F)CC3)c2c1 [Compound 43, 5-(3,5-Dimethylisoxazol-4-yl)-N-(1-(2-fluoro-2-methylpropyl)piperidin-4-yl)-1H-indazole-3-carboxamide] | 2170 | –
1650 | 6 | 31 | 4770 | 1270 | CN1CC2(CCC(NC(=O)c3n[nH]c4ccc(-c5cnn(C)c5)cc34)CC2)C1 [Compound 45, 5-(1-Methyl-1H-pyrazol-4-yl)-N-(2-methyl-2-azaspiro [3.5]nonan-7-yl)-1H-indazole-3-carboxamide] | 355 | –
1460 | 4450 | 704 | 4500 | > 10000 | O=C(Nc1ccc(F)cc1)c1n[nH]c2ccc(-c3cnn(C4CC4)c3)cc12 [Compound 46, 5-(1-Cyclopropyl-1H-pyrazol-4-yl)-N-(4-fluorophenyl)-1H-indazole-3-carboxamide] | 543 | 48.3
